According to BigSolDB 2.1:

C/C(=C/C(C)=N/c1c(C(C)C)cccc1C(C)C)Nc1c(C(C)C)cccc1C(C)C
solubility (mole fraction)
Conditions | in THF | in ethanol | in methanol | in n-hexane | in toluene
268.15 K | 0.101 | 0.0008 | – | 0.0374 | 0.054
273.15 K | 0.108 | 0.0009 | – | 0.0417 | 0.061
278.15 K | 0.114 | 0.001 | – | 0.0464 | 0.0673
283.15 K | 0.122 | 0.0013 | 0.0001 | 0.048 | 0.078
288.15 K | 0.138 | 0.0015 | 0.0002 | 0.0546 | 0.087
293.15 K | 0.15 | 0.0019 | 0.0002 | 0.0609 | 0.099
298.15 K | 0.169 | 0.0022 | 0.0003 | 0.0699 | 0.108
303.15 K | 0.184 | 0.0025 | 0.0004 | 0.078 | 0.127
308.15 K | 0.199 | 0.003 | 0.0005 | 0.0891 | 0.145
313.15 K | 0.223 | 0.0036 | 0.0007 | 0.103 | 0.151
318.15 K | – | – | 0.0008 | – | –
